Earlier results in patent US10113000B2, “Combination therapies for B-cell lymphomas comprising administration of anti-CD20 antibody” (BIOGEN INC., priority 1998, dated 2018).

B1: IL-4: cytokine (protein, UniProt P05112 25-153, looked up)
Interleukin-4: HKCDITLQEIIKTLNSLTEQKTLCTELTVTDIFAASKNTTEKETFCRAATVLRQFYSHHEKDTRCLGATAQQFHRHKQLIRFLKRLDRNLWGLAGLNSCPVKEANQSTLENFLERLKTIMREKYSKCSS

Assays:
[1] = test system: mononuclear cells from CLL patients; settings: incubated for 24 hours
[2] = test system: multiple myeloma (MM) patient plasma cells

| Molecule | CD20 expression by flow cytometry [1] | binding of cells to Rituximab ([2]; MM plasma cells, patient B-cells, normal donor B-cells) | concentration at which plateau of CD20 induction occurred ([2]; at 48 hours) [U/ml] | concentration at which CD20 upregulation is seen ([2]; plasma cells, dose dependent) [U/ml] |
| --- | --- | --- | --- | --- |
| GM-CSF: cytokine | significant up-regulation |  |  |  |
| TNF-alpha | significant up-regulation |  |  |  |
| gamma-interferon: cytokine |  | augments binding | 100 | 1 |
| B1 | significant up-regulation |  |  |  |
